Where two headings read alike, the source gives them in different places.

One data set concerns plated rat hepatocytes. It counts as in vitro ADME. The procedure:
Short-term monolayer cultures of cryopreserved primary hepatocytes from rat were prepared in collagen coated 48-well plates to perform metabolic assays in a kinetic manner for up to 22 h.
Palatable primary male rat hepatocytes (Sprague-Dawley, Grade P pooled cryopreserved hepatocytes, for plated assays) and supplements were purchased from Biopredic International (Saint Grégoire, France). WEM (with Phenol Red, with GlutaMAX™, without HEPES) was purchased from Gibco™ (ThermoFisherScientific).
Cells were thawed following the supplier's protocol and seeded at a density of 450,000 cells/mL in 0.25 mL seeding medium (WEM supplemented with fetal bovine serum, Dexamethasone, penicillin-streptomycin, insulin, GlutaMAX™ and HEPES) using 48-well plates which were coated with collagen (Collagen I Rat Protein, Tail; Gibco™, ThermoFisherScientific) and incubated for 4-5 h to facilitate attachment. Then, the medium was changed to culturing medium (WEM supplemented with penicillin, streptomycin, insulin, hydrocortisone without serum) to prevent detachment of cells.
Test chemicals were dissolved in methanol (80-90% methanol) and directly added with the culture medium (0.8-0.9% final methanol concentration). For structure-activity studies, final concentration of test chemicals was 50 µM or 5 µM. Cells were incubated for 0.5-22 h in the presence of test chemicals. To stop the reactions, the culture medium was removed and 0.5 M citric acid (pH 2.0; 60 µL) and cold acetonitrile (60 µL) containing 2 µM decanoyl CoA as internal standard were added to each well. The attached cells were removed and disrupted by scraping the well with a pipette tip and by pipetting up and down several times, transferred in 1.5 mL tubes and frozen at -80°C. The cell lysates were defrozen, centrifuged (21,000 x g, 5 min, RT), and the supernatant was diluted with 1.36 mL Tris-buffer (4 mM) containing KCI (6 mM), MgCl2 (0.3 mM) and n-heptadecanoyl CoA as internal standard (0.2 µM). Samples were neutralized by addition of NaOH (42 µL of 1 M NaOH) and loaded onto solid phase extraction cartridges (OASIS HLB µEIution plate, Waters). Columns were washed with 200 µL of ammonium solution (1 M), and samples eluted sequentially with 50 µL acetonitrile and 50 µL water.
CoA conjugates were analyzed with high resolution LC-MS (LC-HRMS) on a Dionex UltiMate 3000 RS HPLC system coupled to a Q-Exactive orbitrap mass spectrometer (Thermo Scientific, Reinach, Switzerland) with electrospray ionization (ESI) in both positive and negative ionization mode. For liquid chromatography separation an Agilent Zorbax 300Extend-C18 column with dimensions 2.1 mm x 50 mm and particle size of 3.5 µm with a 2.1 mm x 10 mm pre-column of the same material was used. The flow rate was 0.4 mL/min. Eluent A consists of water containing 0.0025% ammonia (pH around 9.8) and eluent B consists of acetonitrile containing 0.0025% ammonia. A linear gradient was run from 95% eluent A (hold for 1 min) to 100% eluent B within 6 min (hold for 1 min), back to 95% eluent A within 0.5 min followed by 1.5 min equilibration time. The injection volume of the sample was 10 µl. The mass resolution of the HR-MS spectra was set to 70,000. The mass accuracy was <5ppm. […] Ion source parameters adjusted were as follows: sheath gas flow (30 arbitrary unit), auxiliary gas flow (10 arbitrary unit), capillary temperature (270°C), and source voltage (4kV in positive mode, -3kV in negative mode). Fragmentation was obtained from dissociation in an octopole collision cell using higher energy collision dissociation settings at 35 and 45 (arbitrary unit). The mass scan range was set from 120 to 1800 m/z.
Calibration standards were prepared with CoA, acetyl-CoA, benzoyl-CoA, TBBA-CoA, and octanoyl-CoA to determine the concentrations of CoA conjugates. Decanoyl-CoA and heptadecanoyl-CoA were used as internal standards. The limit of detection with this method is 0.005 µM for CoA conjugates. […]

A further data set concerns primates. Conditions: cited from earlier work.
The subject of data set [1] is reproductive organs of male rats. Particulars: rat, in vivo; cited from earlier work.
Data set [2] has as its system reproductive organs of male dogs. Particulars: dog, in vivo; cited from earlier work.
A further data set deals with mice. Conditions: mouse, in vivo; cited from earlier work.
The next data set concerns guinea-pigs. Particulars: guinea pig, in vivo; cited from earlier work.
A further data set concerns primary rat hepatocytes. Conditions: TBBA treatment; cited from earlier work.
Setting [3] is: male, Sprague-Dawley, rat, 0.5 h, 50 µM.
The mark [4] stands for this setting: male, Sprague-Dawley, rat, 4 h, 50 µM.
Where [5] appears, read: male, Sprague-Dawley, rat, 22 h, 50 µM.

Regarding `CC(C)CC1=CCC(CCC=O)C(C)C1` (stereo not drawn) [3-(4-isobutyl-6-methylcyclohex-3-en-1-yl)propanal], in the data set with plated rat hepatocytes (setting [3]), the “CoA Conjugates Detected in Plated Rat Hepatocytes (Total Amount)” value (“CoA Conjugates Detected” below) is reported as 86 % of TBBA-CoA ex BMHCA, the “CoA conjugate detected: 3-(4-isobutyl-2-methylcyclohexyl)propanoic acid-CoA” value is reported as 3 % of TBBA-CoA ex BMHCA, the “CoA conjugate detected: 3-(4-isobutyl-6-methylcyclohex-3-en-1-yl)propanoic acid” value is given as 58 % of TBBA-CoA ex BMHCA and the “CoA conjugate detected: 3-(4-isobutyl-6-methylcyclohexa-1,3-dien-1-yl)propanoic acid-CoA” value is given as 21 % of TBBA-CoA ex BMHCA. For the same molecule, in the data set on plated rat hepatocytes (setting [3]), the “CoA conjugate detected: 4-isobutyl-6-methylcyclohex-3-ene-1-carboxylic acid-CoA” value is reported as 4 % of TBBA-CoA ex BMHCA. In the data set with plated rat hepatocytes (setting [4]), the “CoA Conjugates Detected” value is 31 % of TBBA-CoA ex BMHCA, the “CoA conjugate detected: 3-(4-isobutyl-6-methylcyclohex-3-en-1-yl)propanoic acid” value is 19 % of TBBA-CoA ex BMHCA, the “CoA conjugate detected: 3-(4-isobutyl-6-methylcyclohexa-1,3-dien-1-yl)propanoic acid-CoA” value is given as 8 % of TBBA-CoA ex BMHCA and the “CoA conjugate detected: 4-isobutyl-6-methylcyclohex-3-ene-1-carboxylic acid-CoA” value was 4 % of TBBA-CoA ex BMHCA.
As to `CC(C)CC1=CCC(CCC=O)CC1` (stereo not drawn) [3-(4-isobutylcyclohex-3-en-1-yl)propanal], the main conjugate detected in the data set with plated rat hepatocytes (male, Sprague-Dawley, rat, 50 µM) was 4-isobutylbenzoic acid-CoA. In the data set with plated rat hepatocytes (setting [3]), the “CoA Conjugates Detected” value was 74 % of TBBA-CoA ex BMHCA, the “CoA conjugate detected: 3-(4-isobutylcyclohex-3-en-1-yl)propanoic acid-CoA” value is 19 % of TBBA-CoA ex BMHCA, the “CoA conjugate detected: 3-(4-isobutylcyclohexa-1,3-dien-1-yl)propanoic acid-CoA” value is recorded as 12 % of TBBA-CoA ex BMHCA and the “CoA conjugate detected: 4-isobutylcyclohex-3-ene-1-carboxylic acid-CoA” value is recorded as 23 % of TBBA-CoA ex BMHCA. The “CoA conjugate detected: 4-isobutylcyclohexa-1,3-diene-1-carboxylic acid-CoA” value in the data set on plated rat hepatocytes (setting [3]) was 8 % of TBBA-CoA ex BMHCA. In the data set on plated rat hepatocytes (setting [4]), the “CoA Conjugates Detected” value is on record as 45 % of TBBA-CoA ex BMHCA, the “CoA conjugate detected: 3-(4-isobutylcyclohex-3-en-1-yl)propanoic acid-CoA” value is on record as 2 % of TBBA-CoA ex BMHCA, the “CoA conjugate detected: 3-(4-isobutylcyclohexa-1,3-dien-1-yl)propanoic acid-CoA” value is 2 % of TBBA-CoA ex BMHCA and the “CoA conjugate detected: 4-isobutylcyclohex-3-ene-1-carboxylic acid-CoA” value was 10 % of TBBA-CoA ex BMHCA. Moreover, the “CoA conjugate detected: 4-isobutylcyclohexa-1,3-diene-1-carboxylic acid-CoA” value in the data set on plated rat hepatocytes (setting [4]) is 8 % of TBBA-CoA ex BMHCA. In the data set on plated rat hepatocytes (setting [5]), the “CoA Conjugates Detected” value is listed as 29 % of TBBA-CoA ex BMHCA, the “CoA conjugate detected: 3-(4-isobutylcyclohex-3-en-1-yl)propanoic acid-CoA” value was 3 % of TBBA-CoA ex BMHCA and the “CoA conjugate detected: 4-isobutylcyclohex-3-ene-1-carboxylic acid-CoA” value is reported as 5 % of TBBA-CoA ex BMHCA.
On to `CC1=C(CCC=O)CCC(C(C)C)C1` (stereo not drawn) [3-(4-isopropyl-2-methylcyclo-hex-1-en-1-yl)propanal], for which, in the data set on plated rat hepatocytes, the “accumulation of CoA-conjugates (in words)” value is recorded as “significantly reduced accumulation”. Also, in the data set on plated rat hepatocytes (setting [3]), the “CoA Conjugates Detected” value is listed as 62 % of TBBA-CoA ex BMHCA, the “CoA conjugate detected: 3-(4-isopropyl-2-methylcyclohex-1-en-1-yl)propanoic acid-CoA” value is listed as 22 % of TBBA-CoA ex BMHCA, the “CoA conjugate detected: 3-(4-isopropyl-2-methylcyclohexa-1,5-dien-1-yl)propanoic acid-CoA” value is given as 34 % of TBBA-CoA ex BMHCA and the “CoA conjugate detected: 3-(4-isopropyl-2-methylphenyl)propanoic acid-CoA” value was 2 % of TBBA-CoA ex BMHCA. Moreover, in the data set with plated rat hepatocytes (setting [3]), the “CoA conjugate detected: 4-isopropyl-2-methylcyclohex-1-ene-1-carboxylic acid-CoA” value is listed as 4 % of TBBA-CoA ex BMHCA. Moreover, in the data set with plated rat hepatocytes (setting [4]), the “CoA Conjugates Detected” value is on record as 28 % of TBBA-CoA ex BMHCA, the “CoA conjugate detected: 3-(4-isopropyl-2-methylcyclohex-1-en-1-yl)propanoic acid-CoA” value was 10 % of TBBA-CoA ex BMHCA, the “CoA conjugate detected: 3-(4-isopropyl-2-methylcyclohexa-1,5-dien-1-yl)propanoic acid-CoA” value was 13 % of TBBA-CoA ex BMHCA and the “CoA conjugate detected: 3-(4-isopropyl-2-methylphenyl)propanoic acid-CoA” value is reported as 2 % of TBBA-CoA ex BMHCA. Besides, in the data set on plated rat hepatocytes (setting [4]), the “CoA conjugate detected: 4-isopropyl-2-methylcyclohex-1-ene-1-carboxylic acid-CoA” value is 3 % of TBBA-CoA ex BMHCA. In the data set on plated rat hepatocytes (setting [5]), the “CoA Conjugates Detected” value was 9 % of TBBA-CoA ex BMHCA, the “CoA conjugate detected: 3-(4-isopropyl-2-methylcyclohex-1-en-1-yl)propanoic acid-CoA” value was 3 % of TBBA-CoA ex BMHCA, the “CoA conjugate detected: 3-(4-isopropyl-2-methylcyclohexa-1,5-dien-1-yl)propanoic acid-CoA” value is listed as 3 % of TBBA-CoA ex BMHCA and the “CoA conjugate detected: 4-isopropyl-2-methylcyclohex-1-ene-1-carboxylic acid-CoA” value was 3 % of TBBA-CoA ex BMHCA. Moreover, the “GC Odor Threshold” value in “GC odor threshold” was 0.022 ng/L.
As to `CC(C)C1CC=C(CCC=O)CC1` (stereo not drawn) [3-(4-isopropylcyclohex-1-en-1-yl)propanal], in the data set on plated rat hepatocytes, the “accumulation of CoA-conjugates (in words)” value is listed as “substantial accumulation”. For the same molecule, in the data set with plated rat hepatocytes (setting [3]), the “CoA Conjugates Detected” value is 124 % of TBBA-CoA ex BMHCA, the “CoA conjugate detected: 3-(4-isopropylcyclohex-1-en-1-yl)propanoic acid-CoA” value was 53 % of TBBA-CoA ex BMHCA, the “CoA conjugate detected: 3-(4-isopropylcyclohexa-1 ,5-dien-1-yl)propanoic acid-CoA” value is 36 % of TBBA-CoA ex BMHCA and the “CoA conjugate detected: 4-isopropylcyclohex-1-ene-1-carboxylic acid-CoA” value was 23 % of TBBA-CoA ex BMHCA. The “CoA conjugate detected: 4-isopropylcyclohexane-1-carboxylic acid-CoA” value with plated rat hepatocytes (setting [3]) is given as 12 % of TBBA-CoA ex BMHCA. Also, in the data set with plated rat hepatocytes (setting [4]), the “CoA Conjugates Detected” value is on record as 79 % of TBBA-CoA ex BMHCA, the “CoA conjugate detected: 3-(4-isopropylcyclohex-1-en-1-yl)propanoic acid-CoA” value is on record as 26 % of TBBA-CoA ex BMHCA, the “CoA conjugate detected: 3-(4-isopropylcyclohexa-1 ,5-dien-1-yl)propanoic acid-CoA” value is recorded as 17 % of TBBA-CoA ex BMHCA and the “CoA conjugate detected: 4-isopropylcyclohex-1-ene-1-carboxylic acid-CoA” value is on record as 26 % of TBBA-CoA ex BMHCA. Moreover, in the data set on plated rat hepatocytes (setting [4]), the “CoA conjugate detected: 4-isopropylcyclohexane-1-carboxylic acid-CoA” value is 10 % of TBBA-CoA ex BMHCA. In the data set with plated rat hepatocytes (setting [5]), the “CoA Conjugates Detected” value is 31 % of TBBA-CoA ex BMHCA, the “CoA conjugate detected: 4-isopropylcyclohex-1-ene-1-carboxylic acid-CoA” value is listed as 24 % of TBBA-CoA ex BMHCA and the “CoA conjugate detected: 4-isopropylcyclohexane-1-carboxylic acid-CoA” value is recorded as 7 % of TBBA-CoA ex BMHCA.
For `CC(C=O)Cc1ccc(C(C)(C)C)cc1` (stereo not drawn) [BMHCA, 3-(4-tert-butylphenyl)-2-methylpropanal], the “CoA Conjugates Detected” value in the data set on plated rat hepatocytes (setting [3]), in the data set with plated rat hepatocytes (setting [4]) and with plated rat hepatocytes (setting [5]) was 100 % of TBBA-CoA ex BMHCA in each case. Moreover, the toxic effects result with primates, with mice and in the data set on guinea-pigs was “No effects” in each case. Further, the “toxic effects on the reproductive organs” value in data set [1] and in data set [2] was “toxic effects” in each case.
Take `CC(C)(C)c1ccc(C(=O)O)cc1` [TBBA, 4-(tert-butyl)benzoic acid]: the “p-tert-butyl-benzoyl-CoA accumulates to stable levels within” value in the data set on plated rat hepatocytes (male, Sprague-Dawley, rat) lay in the range of 0.5 to 4 h. In addition, in the data set with primary rat hepatocytes, the “CoA, acetyl-CoA and citrate levels” value is “decreased”.

Values taken from patent EP3807241B1, “IMPROVEMENTS IN OR RELATING TO ORGANIC COMPOUNDS” (Givaudan SA, priority 2018, dated 2019).
